In patent US12109308B2, “Aqueous formulation comprising 1-(4-{[4-(dimethylamino)piperidin-1-yljcarbonyl}phenyl)-3-[4-(4,6-dimorpholin-4-yl-1,3,5-triazin-2-yl)phenyl]urea” (Pfizer Inc., priority 2018, dated 2024):

Assays:
[1] = Stability and water solubility of the crystalline free base (background statement); type: physicochemical
[2] = only with lactic acid and orthophosphoric acid, of the many acids tested; no cyclodextrin; cited from earlier work

- chemically and physically stable for (time) ([1]; crystalline form, 25° C. and 60% Relative Humidity (RH)): up to 3 years
- water solubility of the free base ([1]; for an aqueous solution formulation for intravenous or parenteral administration at therapeutic dosage levels): insufficiently water soluble
SMILES: CN(C)C1CCN(C(=O)c2ccc(NC(=O)Nc3ccc(-c4nc(N5CCOCC5)nc(N5CCOCC5)n4)cc3)cc2)CC1 [1-(4-{[4-(Dimethylamino)piperidin-1-yl]carbonyl}phenyl)-3-[4-(4,6-dimorpholin-4-yl-1,3,5-triazin-2-yl)phenyl]urea]
- concentration achieved as a clear solution [2]: ≥ 3000 µg/mL
